Experimental data as given in patent publication US20200170256A1, “Amonia Based Piscicide” (priority 2018, published 2020).

Columns and labels:
mitochondrial complex I = conditions: 2011 NIH study; cited from earlier work
fathead minnows = fathead minnows exposed to the piscicide in 100-gallon laboratory tanks (effective amount of ammonium chloride); format: in vivo
Experimental: During each replicate trial, ten fathead minnows were exposed to the pisticide over a four hour period in 100-gallon laboratory tanks at 20° C.

SMILES | role in inhibiting mitochondrial complex I among 31 tested piscicides (mitochondrial complex I) | effective amount of ammonium chloride alone (approximate same effect) (fathead minnows)
C=C(C)[C@H]1Cc2c(ccc3c2O[C@@H]2COc4cc(OC)c(OC)cc4[C@@H]2C3=O)O1 [Rotenone] | greatest role in inhibiting mitochondrial complex I | –
Cl.N [ammonium chloride] | – | 0.6-0.8 grams per gallon
